The values that follow are results of earlier work, collected in paper PMC9851200, “Multiparameter phenotypic screening for endogenous TFEB and TFE3 translocation identifies novel chemical series modulating lysosome function” (Autophagy, 2022).

What all share (design): method as in original PKIS2 published data
The target of series [1] is T1, kinases (KINOMEscan panel) (Homo sapiens, UniProt Q9NRH2).
T1 sequence (Q9NRH2 1-765): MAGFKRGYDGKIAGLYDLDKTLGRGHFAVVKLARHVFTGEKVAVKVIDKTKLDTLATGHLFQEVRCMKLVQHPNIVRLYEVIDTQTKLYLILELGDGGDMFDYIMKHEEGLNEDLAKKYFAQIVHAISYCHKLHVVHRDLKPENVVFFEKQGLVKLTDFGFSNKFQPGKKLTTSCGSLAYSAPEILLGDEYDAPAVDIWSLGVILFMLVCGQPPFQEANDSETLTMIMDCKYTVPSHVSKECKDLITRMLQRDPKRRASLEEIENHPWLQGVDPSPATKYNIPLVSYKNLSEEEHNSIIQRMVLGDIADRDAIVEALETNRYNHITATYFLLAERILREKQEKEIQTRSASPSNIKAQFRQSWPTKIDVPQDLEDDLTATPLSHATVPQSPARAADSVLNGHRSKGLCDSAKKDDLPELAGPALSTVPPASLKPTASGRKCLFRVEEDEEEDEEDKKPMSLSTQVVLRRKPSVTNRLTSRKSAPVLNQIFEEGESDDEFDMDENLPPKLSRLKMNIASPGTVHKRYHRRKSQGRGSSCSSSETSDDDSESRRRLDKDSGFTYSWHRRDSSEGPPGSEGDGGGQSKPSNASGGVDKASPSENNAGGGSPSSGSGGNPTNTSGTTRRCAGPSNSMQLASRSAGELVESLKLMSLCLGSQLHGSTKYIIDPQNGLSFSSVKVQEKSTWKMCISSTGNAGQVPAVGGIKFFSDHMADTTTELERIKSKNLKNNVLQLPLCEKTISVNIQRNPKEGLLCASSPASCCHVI
The conditions noted are these: kinase SNRK; Published KINOMEscan; ref original PKIS2 published data; cited from earlier work.

For series [2], the target named is T2, kinases (KINOMEscan panel) (Homo sapiens, UniProt P57078).
T2 sequence (P57078 1-832): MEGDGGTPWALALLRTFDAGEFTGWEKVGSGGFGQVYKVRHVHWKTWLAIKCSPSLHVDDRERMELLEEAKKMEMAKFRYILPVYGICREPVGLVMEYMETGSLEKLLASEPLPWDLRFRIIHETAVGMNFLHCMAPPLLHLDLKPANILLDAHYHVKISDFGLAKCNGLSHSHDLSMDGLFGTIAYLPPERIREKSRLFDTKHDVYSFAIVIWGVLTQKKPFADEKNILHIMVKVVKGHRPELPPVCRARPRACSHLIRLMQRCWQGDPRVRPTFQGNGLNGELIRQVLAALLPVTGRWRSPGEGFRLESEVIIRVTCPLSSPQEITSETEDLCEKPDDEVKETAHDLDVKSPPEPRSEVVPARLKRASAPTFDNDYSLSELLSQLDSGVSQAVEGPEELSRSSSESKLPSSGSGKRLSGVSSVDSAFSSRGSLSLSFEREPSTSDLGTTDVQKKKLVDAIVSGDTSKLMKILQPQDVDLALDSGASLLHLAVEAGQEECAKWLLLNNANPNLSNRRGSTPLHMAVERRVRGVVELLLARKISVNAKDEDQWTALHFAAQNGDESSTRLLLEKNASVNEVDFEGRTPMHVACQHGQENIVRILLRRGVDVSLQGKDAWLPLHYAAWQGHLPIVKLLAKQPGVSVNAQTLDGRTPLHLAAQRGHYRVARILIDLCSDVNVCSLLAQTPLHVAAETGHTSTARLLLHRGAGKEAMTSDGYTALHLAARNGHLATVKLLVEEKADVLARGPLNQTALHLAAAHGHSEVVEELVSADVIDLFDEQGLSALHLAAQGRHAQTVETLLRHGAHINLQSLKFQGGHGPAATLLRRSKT
The conditions noted are these: RIPK4; Published KINOMEscan; ref original PKIS2 published data; cited from earlier work.

For series [3], the target named is kinases (KINOMEscan panel) (Homo sapiens, UniProt Q14012). The conditions noted are these: CAMK1; Published KINOMEscan; ref original PKIS2 published data; cited from earlier work.
Series [4] addresses kinases (KINOMEscan panel) (Homo sapiens, UniProt O43683). The conditions noted are these: kinase BUB1; Published KINOMEscan; ref original PKIS2 published data; cited from earlier work.
Series [5] addresses T3, kinases (KINOMEscan panel) (Homo sapiens, UniProt O15075).
T3 sequence (O15075 1-740): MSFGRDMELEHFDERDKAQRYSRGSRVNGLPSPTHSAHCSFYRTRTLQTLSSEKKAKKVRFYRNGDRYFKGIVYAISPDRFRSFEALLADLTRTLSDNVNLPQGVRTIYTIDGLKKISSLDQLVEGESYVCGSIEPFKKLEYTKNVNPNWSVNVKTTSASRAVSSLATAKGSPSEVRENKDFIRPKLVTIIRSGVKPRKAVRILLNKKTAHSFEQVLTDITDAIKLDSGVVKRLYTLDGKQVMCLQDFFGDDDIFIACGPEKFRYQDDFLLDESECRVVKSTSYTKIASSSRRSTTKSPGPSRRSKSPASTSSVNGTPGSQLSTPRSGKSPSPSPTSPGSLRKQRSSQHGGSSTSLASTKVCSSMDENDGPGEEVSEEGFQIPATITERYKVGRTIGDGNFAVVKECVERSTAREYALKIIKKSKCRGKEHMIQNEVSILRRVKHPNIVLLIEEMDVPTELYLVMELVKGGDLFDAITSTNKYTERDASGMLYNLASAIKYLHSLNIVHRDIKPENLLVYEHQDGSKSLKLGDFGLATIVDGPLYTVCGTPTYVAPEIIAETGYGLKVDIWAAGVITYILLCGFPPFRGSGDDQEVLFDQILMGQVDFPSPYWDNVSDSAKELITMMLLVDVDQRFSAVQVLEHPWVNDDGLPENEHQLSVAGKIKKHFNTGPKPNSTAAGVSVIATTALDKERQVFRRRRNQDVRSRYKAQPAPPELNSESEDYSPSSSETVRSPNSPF
As to conditions: Published KINOMEscan; ref original PKIS2 published data; cited from earlier work.

kinases (KINOMEscan panel) (Homo sapiens, UniProt O43683), sequence (O43683 whole entry): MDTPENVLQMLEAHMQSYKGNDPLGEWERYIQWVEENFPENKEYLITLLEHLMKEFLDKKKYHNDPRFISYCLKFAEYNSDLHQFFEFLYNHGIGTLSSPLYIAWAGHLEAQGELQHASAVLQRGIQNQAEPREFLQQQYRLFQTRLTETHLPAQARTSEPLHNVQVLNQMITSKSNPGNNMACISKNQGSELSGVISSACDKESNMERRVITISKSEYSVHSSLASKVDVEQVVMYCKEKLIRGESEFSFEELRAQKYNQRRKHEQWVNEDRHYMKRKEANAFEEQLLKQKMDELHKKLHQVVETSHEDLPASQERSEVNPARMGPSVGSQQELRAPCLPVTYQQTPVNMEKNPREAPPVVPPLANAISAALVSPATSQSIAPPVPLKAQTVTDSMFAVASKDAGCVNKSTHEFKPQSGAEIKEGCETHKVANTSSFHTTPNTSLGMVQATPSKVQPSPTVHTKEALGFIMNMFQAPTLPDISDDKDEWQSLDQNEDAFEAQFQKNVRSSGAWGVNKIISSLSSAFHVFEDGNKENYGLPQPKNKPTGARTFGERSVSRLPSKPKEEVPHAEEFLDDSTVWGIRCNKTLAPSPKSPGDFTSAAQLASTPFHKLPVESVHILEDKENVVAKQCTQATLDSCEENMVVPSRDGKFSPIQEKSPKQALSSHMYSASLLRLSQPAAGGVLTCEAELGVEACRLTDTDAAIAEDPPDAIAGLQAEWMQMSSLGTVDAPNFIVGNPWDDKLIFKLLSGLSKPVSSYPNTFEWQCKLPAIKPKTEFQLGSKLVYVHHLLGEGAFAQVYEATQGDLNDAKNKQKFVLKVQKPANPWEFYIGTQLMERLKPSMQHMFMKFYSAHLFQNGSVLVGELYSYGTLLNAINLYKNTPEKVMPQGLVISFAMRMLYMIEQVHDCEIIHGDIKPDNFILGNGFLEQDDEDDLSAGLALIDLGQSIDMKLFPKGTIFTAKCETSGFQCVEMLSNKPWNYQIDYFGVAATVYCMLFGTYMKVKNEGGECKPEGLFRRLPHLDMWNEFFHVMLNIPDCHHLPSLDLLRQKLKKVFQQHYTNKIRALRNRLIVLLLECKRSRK
kinases (KINOMEscan panel) (Homo sapiens, UniProt Q14012), sequence (Q14012 whole entry): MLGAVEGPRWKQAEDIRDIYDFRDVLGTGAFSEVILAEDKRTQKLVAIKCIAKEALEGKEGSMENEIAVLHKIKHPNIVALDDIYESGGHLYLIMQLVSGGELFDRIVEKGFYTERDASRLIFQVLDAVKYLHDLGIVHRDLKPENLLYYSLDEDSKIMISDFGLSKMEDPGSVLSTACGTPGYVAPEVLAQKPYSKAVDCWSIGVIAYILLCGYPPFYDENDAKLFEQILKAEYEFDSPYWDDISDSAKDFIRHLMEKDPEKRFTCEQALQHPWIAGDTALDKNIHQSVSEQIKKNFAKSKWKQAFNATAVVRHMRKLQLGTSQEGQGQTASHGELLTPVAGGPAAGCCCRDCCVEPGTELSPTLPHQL

`Cc1cccc(-c2nc(Nc3ccncc3)c3ccccc3n2)n1` [NK215]: the “KINOMEscan SNRK” value in series [1] is 0. Further, in series [2], the “KINOMEscan RIPK4” value was 0. Also, in series [3], the “KINOMEscan CAMK1” value was 0. For the same compound, the “KINOMEscan BUB1” value in series [4] is given as 0. In addition, in series [5], the “KINOMEscan DCLK1” value is on record as 14.
